These are literature values, as cited in patent publication US8748570B2, “Insulin analogues” (priority 2010, dated 2014).

Read-outs that look alike come from different tables or passages of the source.

The test system of series [1] is cultured human lymphocytes.
A further series concerns the target IGF-IR (Homo sapiens, UniProt P08069).

For “A7, B7-(2,7-diaminosuberoyl]-des-(B26-B30)-insulin B25-amide [dicarba-A7-B7-insulin]”, the EC50 in the series on isolated rat adipocytes (lipogenesis, read-out: ED50 (the source's name)) is 4.8 nM. Further, the figures for the “relative potency compared to human insulin” value with isolated rat adipocytes (on a molar basis) and in the series on isolated rat adipocytes (on a weight basis) were 0.66% and 0.72%, respectively. In addition, the Relative binding affinity in series [1] is 0.1 % of human insulin.
For the substance “Glargine insulin: long-acting insulin: two arginines added to the B-chain C-terminus, glycine at A21”, for the setting “in vivo”, the duration of activity is 24 h and the “peak time of effect” value is reported as “no peak effect”. Also, the IGF-IR binding result with IGF-IR is on record as “enhanced”.
Take “detemir: long-acting insulin with a fatty acid chain on the ε-amino group of LysB29”: the in vivo potency entry is on record as “reduced”.
